One data set addresses T1, μ-opioid receptor (Rattus norvegicus, UniProt P33535).
T1 construct: the forebrains are homogenized in Tris buffer in a Teflon®-glass homogenizer; from tissue; host or cells: forebrain of male Wistar rats (particulate membrane preparation)
In words: Rat brain μ-opioid receptor binding assay ([3H]DAMGO). Particulars: 10 nM solutions of the compounds, read-out: MOR binding Ki. In outline: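 Rat forebrain membranes from male Wistar rats, prepared in 50 mM Tris HCl pH 7.4, used for [3H]DAMGO binding. Filter-bound radioactivity measured by scintillation counting.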
T1 sequence (P33535 whole entry): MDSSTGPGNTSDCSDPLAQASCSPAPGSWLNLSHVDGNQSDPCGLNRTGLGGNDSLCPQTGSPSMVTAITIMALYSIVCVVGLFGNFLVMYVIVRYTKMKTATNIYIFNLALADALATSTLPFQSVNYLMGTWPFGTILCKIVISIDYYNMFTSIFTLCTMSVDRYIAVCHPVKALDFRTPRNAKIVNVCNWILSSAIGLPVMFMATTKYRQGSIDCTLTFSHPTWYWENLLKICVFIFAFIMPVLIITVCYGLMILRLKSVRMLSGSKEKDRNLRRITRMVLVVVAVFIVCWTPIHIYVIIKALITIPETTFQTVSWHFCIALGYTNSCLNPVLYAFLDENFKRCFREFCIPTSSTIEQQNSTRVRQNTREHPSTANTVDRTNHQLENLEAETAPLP
The term Ki denotes a measure of affinity in units of concentration, obtained from inhibition or displacement. In the case of `CCNC(=O)c1ccc(C(=C2CC3CCC(C2)N3C(=O)OCC)c2ccc(O)c(OC)c2)cc1` [Cpd 172, 3-[(4-Ethylcarbamoyl-phenyl)-(4-hydroxy-3-methoxy-phenyl)-methylene]-8-aza-bicyclo[3.2.1]octane-8-carboxylic acid ethyl ester], the inhibition constant (Ki) came out at 713 nM.
Turning to `CCNC(=O)c1ccc(C(=C2CC3CCC(C2)N3C(=O)OCC)c2cc(C)c(O)c(C)c2)cc1` [Cpd 173, 3-[(4-Ethylcarbamoyl-phenyl)-(4-hydroxy-3,5-dimethyl-phenyl)-methylene]-8-aza-bicyclo[3.2.1]octane-8-carboxylic acid ethyl ester], the Ki came out at 2070 nM.
Regarding `CCNC(=O)c1ccc(C(=C2CC3CCC(C2)N3Cc2ccccn2)c2ccc(C(N)=O)cc2)cc1` [Cpd 183], the Ki was 5050 nM.
In the case of `CCNC(=O)c1ccc(C(=C2CC3CCC(C2)N3Cc2nccs2)c2ccc(C(N)=O)cc2)cc1` [Cpd 188], the inhibition constant Ki amounted to 491 nM.
Same read-out and setting: with `CCNC(=O)c1ccc(C(=C2CC3CCC(C2)N3CC=C(C)C)c2ccc(CO)cc2)cc1` [Cpd 194] the figure was 3.67 nM; with `CCNC(=O)c1ccc(C(=C2CC3CCC(C2)N3Cc2ccco2)c2nnn[nH]2)cc1` [Cpd 204], 25300 nM.
For `CCNC(=O)c1ccc(C(=C2CC3CCC(C2)N3C=O)c2cccnc2)cc1` [Cpd 207, N-Ethyl-4-[(8-formyl-8-aza-bicyclo[3.2.1]oct-3-ylidene)-pyridin-3-yl-methyl]-benzamide], the inhibition constant Ki came to 10000 nM.

Still in this data set, the particulars now being: MOR binding Ki.
Turning to `CCNC(=O)c1ccc(C(=C2CC3CCC(C2)N3CC(=O)c2cc(C(=O)c3ccc(Cl)cc3)cn2C)c2ccccc2)cc1` [Cpd 88, 4-[(8{2-[4-(4-Chloro-benzoyl)-1-methyl-1H-pyrrol-2-yl]-2-oxo-ethyl}-8-azabicyclo[3.2.1]oct-3-ylidene)-phenyl-methyl]-N-ethyl-benzamide], the inhibition constant Ki is 551 nM.
Molecule `CNC(=O)c1ccc(C=C2CC3CCC(C2)N3)cc1` [Cpd 103, 4-(8-Aza-bicyclo[3.2.1]oct-3-ylidenemethyl)-N-methyl-benzamide] displayed an inhibitory constant (Ki) of 10600 nM.
For the molecule `CCNC(=O)c1ccc(C=C2CC3CCC(C2)N3CCC(C(=O)N(C)C)(c2ccccc2)c2ccccc2)cc1` [Cpd 107, 4-[8-(3-Dimethylcarbamoyl-3,3-diphenyl-propyl)-8-aza-bicyclo[3.2.1]oct-3-ylidenemethyl]-N-ethyl-benzamide], the inhibition constant (Ki) worked out at 22.8 nM.
`CCNC(=O)c1ccc(C(=C2CC3CCC(C2)N3Cc2ccsc2)c2cccc(CN)c2)cc1` [Cpd 162] registered a Ki of 849 nM.
Take `CCNC(=O)c1ccc(C(=C2CC3CCC(C2)N3CC=C(C)C)c2cccc(-c3nnn[nH]3)c2)cc1` [Cpd 163]: the Ki was 49.3 nM.
For `CCNC(=O)c1ccc(C(=C2CC3CCC(C2)N3Cc2ccco2)c2cccc(-c3nnn[nH]3)c2)cc1` [Cpd 164, N-ethyl-4{(8-furan-2-ylmethyl-8-aza-bicyclo[3.2.1]oct-3-ylidene)-[3-(1H-tetrazol-5-yl)-phenyl]-methyl}-benzamide], the Ki amounted to 2.32 nM.
`CCNC(=O)c1ccc(C(=C2CC3CCC(C2)N3Cc2ccccn2)c2cccc(-c3nnn[nH]3)c2)cc1` [Cpd 165] displayed a Ki of 54.1 nM.
`CCNC(=O)c1ccc(C(=C2CC3CCC(C2)N3CCc2ccccc2)c2cccc(-c3nnn[nH]3)c2)cc1` [Cpd 166] registered an inhibition constant Ki of 50.3 nM.
Molecule `CCNC(=O)c1ccc(C(=C2CC3CCC(C2)N3Cc2nccs2)c2cccc(-c3nnn[nH]3)c2)cc1` [Cpd 167] showed an inhibitory constant (Ki) of 5.35 nM.
Still for that read-out and setting: with `CCNC(=O)c1ccc(C(=C2CC3CCC(C2)N3Cc2cccs2)c2cccc(-c3nnn[nH]3)c2)cc1` [Cpd 168] the figure was 395 nM; with `CCNC(=O)c1ccc(C(=C2CC3CCC(C2)N3Cc2ccsc2)c2cccc(-c3nnn[nH]3)c2)cc1` [Cpd 169], 14.2 nM; with `CCNC(=O)c1ccc(C(=C2CC3CCC(C2)N3Cc2nccs2)c2ccc(C(=O)O)cc2)cc1` [Cpd 174], 304 nM.
In turn, `CCNC(=O)c1ccc(C(=C2CC3CCC(C2)N3Cc2ccsc2)c2cccc(C(=O)O)c2)cc1` [Cpd 175] gave a Ki of 34.4 nM.
`CCNC(=O)c1ccc(C(=C2CC3CCC(C2)N3Cc2ccsc2)c2ccc(C(=O)O)cc2)cc1` [Cpd 176] showed a Ki of 10.7 nM.
`CCNC(=O)c1ccc(C(=C2CC3CCC(C2)N3Cc2ccoc2)c2ccc(C(N)=O)cc2)cc1` [Cpd 177] yielded a Ki of 1.34 nM.
With `CCNC(=O)c1ccc(C(=C2CC3CCC(C2)N3Cc2ccoc2)c2cccc(CO)c2)cc1` [Cpd 178], the Ki stood at 0.81 nM.
The molecule `CCNC(=O)c1ccc(C(=C2CC3CCC(C2)N3Cc2ccco2)c2cccc(CO)c2)cc1` [Cpd 179] had an inhibition constant Ki of 8.43 nM.
Turning to `CCNC(=O)c1ccc(C(=C2CC3CCC(C2)N3Cc2ccco2)c2ccc(C(N)=O)cc2)cc1` [Cpd 180], affinity was put at a Ki of 10 nM.
`CCNC(=O)c1ccc(C(=C2CC3CCC(C2)N3Cc2ccccn2)c2cccc(CO)c2)cc1` [Cpd 181] displayed a Ki of 6.04 nM.
For `CCNC(=O)c1ccc(C(=C2CC3CCC(C2)N3Cc2ccccn2)c2ccc(NS(C)(=O)=O)cc2)cc1` [Cpd 182], the affinity, expressed as Ki, was 2.71 nM.
Turning to `CCNC(=O)c1ccc(C(=C2CC3CCC(C2)N3CCc2ccccc2)c2ccc(NS(C)(=O)=O)cc2)cc1` [Cpd 185], the Ki was 58.9 nM.
As for `CCNC(=O)c1ccc(C(=C2CC3CCC(C2)N3Cc2nccs2)c2cccc(CO)c2)cc1` [Cpd 186], the affinity, expressed as Ki, was 28.6 nM.
Same read-out and setting: the result for `CCNC(=O)c1ccc(C(=C2CC3CCC(C2)N3Cc2nccs2)c2ccc(NS(C)(=O)=O)cc2)cc1` [Cpd 187] reads 121 nM.
`CCNC(=O)c1ccc(C(=C2CC3CCC(C2)N3Cc2ccsc2)c2cccc(CO)c2)cc1` [Cpd 189] had a Ki of 13.7 nM.
For the molecule `CCNC(=O)c1ccc(C(=C2CC3CCC(C2)N3Cc2ccsc2)c2ccc(NS(C)(=O)=O)cc2)cc1` [Cpd 190], the Ki worked out at 0.717 nM.
As to `CCNC(=O)c1ccc(C(=C2CC3CCC(C2)N3Cc2ccsc2)c2ccc(C(N)=O)cc2)cc1` [Cpd 191], affinity was put at a Ki of 22.1 nM.
In the case of `CCNC(=O)c1ccc(C(=C2CC3CCC(C2)N3Cc2ccco2)c2ccc(CO)cc2)cc1` [Cpd 192], the Ki was determined as 18.6 nM.
In the case of `CCNC(=O)c1ccc(C(=C2CC3CCC(C2)N3Cc2ccccn2)c2ccc(CO)cc2)cc1` [Cpd 193], the affinity corresponds to a Ki of 25.3 nM.
`CCNC(=O)c1ccc(C(=C2CC3CCC(C2)N3Cc2nccs2)c2ccc(CO)cc2)cc1` [Cpd 195] came in with an inhibitory constant (Ki) of 64.2 nM.
Consider `CCN(CC)C(=O)c1ccc(C(=C2CC3CCC(C2)N3C#N)c2ccccc2)cc1` [Cpd 197, 4-[(8-cyano-8-aza-bicyclo[3.2.1]oct-3-ylidene)-phenyl-methyl]-N,N-diethylbenzamide], for which the affinity corresponds to a Ki of 10000 nM.
On the same count and under the same terms, with `CCN(CC)C(=O)c1ccc(C(=C2CC3CCC(C2)N3C(=N)N)c2ccccc2)cc1` [Cpd 198, 4-[(8-Carbamimidoyl-8-aza-bicyclo[3.2.1]oct-3-ylidene)-phenyl-methyl]-N,N-diethyl-benzamide] the figure was 10000 nM.
`CCN(CC)C(=O)c1ccc(C(=C2CC3CCC(C2)N3C=O)c2ccccc2)cc1` [Cpd 199] gave a Ki of 5340 nM.
`CCNC(=O)c1ccc(C(=C2CC3CCC(C2)N3C(=O)Cc2ccccc2)c2cccnc2)cc1` [Cpd 200, N-Ethyl-4-[(8-phenylacetyl-8-aza-bicyclo[3.2.1]oct-3-ylidene)-pyridin-3-yl-methyl]-benzamide] showed a Ki of 13.3 nM.
In turn, `CCNC(=O)c1ccc(C(=C2CC3CCC(C2)N3Cc2ccsc2)c2ccc(CO)cc2)cc1` [Cpd 205] gave a Ki of 17.2 nM.
As to `CCNC(=O)c1ccc(C(=C2CC3CCC(C2)N3C(=O)c2cccs2)c2cccnc2)cc1` [Cpd 208, N-Ethyl-4-{pyridin-3-yl-[8-(thiophene-2-carbonyl)-8-aza-bicyclo[3.2.1]oct-3-ylidene]-methyl}-benzamide], the Ki is 61.7 nM.
In turn, `CCNC(=O)c1ccc(C(=C2CC3CCC(C2)N3C(=O)c2ccccn2)c2cccnc2)cc1` [Cpd 213] came in with a Ki of 10000 nM.
With `CCNC(=O)c1ccc(C(=C2CC3CCC(C2)N3C(=O)c2ccoc2)c2cccnc2)cc1` [Cpd 214], affinity was put at a Ki of 580 nM.
`CCNC(=O)c1ccc(C(=C2C[C@H]3CC[C@@H](C2)N3C(=O)Cc2ccccc2)c2cccnc2)cc1` [Cpd 218, N-Ethyl-4-[((1S,5R)-8-phenylacetyl-8-aza-bicyclo[3.2.1]oct-3-ylidene)-pyridin-3-yl-methyl]-benzamide] came in with a Ki of 3.54 nM.

A further data set concerns acetylcholine bromide-induced abdominal constriction response. In words: Mouse acetylcholine bromide-induced abdominal constriction assay. In kind it is in vivo. Particulars: dose of 150 μmole/Kg p.o., 5.5 mg/kg acetylcholine bromide i.p. 30 min later, ten min observation. As for the experimental part:
Mouse Acetylcholine Bromide-Induced Abdominal Constriction Assay
The mouse acetylcholine-induced abdominal constriction assay (as described by Collier et al. in Brit. J. Pharmacol. Chem. Ther., 1968, 32:295-310 with minor modifications) was used to assess analgesic potency of the compounds of formula (I). The test drugs or appropriate vehicles were administered orally (p.o.) and 30 min later the animal received an intraperitoneal (i.p.) injection of 5.5 mg/kg acetylcholine bromide (Matheson, Coleman and Bell, East Rutherford, N.J.). The mice were then placed in groups of three into glass bell jars and observed for a ten min observation period for the occurrence of an abdominal constriction response (defined as a wave of constriction and elongation passing caudally along the abdominal wall, accompanied by a twisting of the trunk and followed by extension of the hind limbs). For compounds of the present invention, the percent inhibition of this response to a nociceptive stimulus (equated to % analgesia) was calculated as follows: [formula]
On to `CCN(CC)C(=O)c1ccc(C(=C2CC3CCC(C2)N3C)c2ccccc2)cc1.Cl` [Example 1, N,N-Diethyl-4-[(8-methyl-8-azabicyclo[3.2.1]oct-3-ylidene)phenylmethyl]benzamide Hydrochloride [1:1]], for which the “inhibition response (percent inhibition of abdominal constriction response, equated to % analgesia)” value is 87%.

System in a further data set: not given
Test: not given
Details: not given
Broadly, the melting point is the temperature, or range, at which the solid turns liquid. Molecule `CCNC(=O)c1ccc(C(=C2CC3CCC(C2)N3CC(=O)c2cc(C(=O)c3ccc(Cl)cc3)cn2C)c2ccccc2)cc1` [Cpd 88, 4-[(8{2-[4-(4-Chloro-benzoyl)-1-methyl-1H-pyrrol-2-yl]-2-oxo-ethyl}-8-azabicyclo[3.2.1]oct-3-ylidene)-phenyl-methyl]-N-ethyl-benzamide] returned a melting point of 195 to 196 °C.
Turning to `CNC(=O)c1ccc(C=C2CC3CCC(C2)N3)cc1` [Cpd 103, 4-(8-Aza-bicyclo[3.2.1]oct-3-ylidenemethyl)-N-methyl-benzamide], the melting point lay in the range of 164 to 166 °C.
`CCNC(=O)c1ccc(C=C2CC3CCC(C2)N3CCC(C(=O)N(C)C)(c2ccccc2)c2ccccc2)cc1` [Cpd 107, 4-[8-(3-Dimethylcarbamoyl-3,3-diphenyl-propyl)-8-aza-bicyclo[3.2.1]oct-3-ylidenemethyl]-N-ethyl-benzamide] came in with a melting point of 137 to 139 °C.

The record behind these values is US20050004163A1, “3-(diarylmethylene)-8-azabicyclo[3.2.1]octane derivatives” (priority 2000, published 2005).
